Reference: patent US8946124B2, “Substituted 3-(biphenyl-3-yl)-8,8-difluoro-4-hydroxy-1-azaspiro[4.5]dec-3-en-2-ones for therapy and halogen-substituted spirocyclic ketoenols” (Bayer Intellectual Property GmbH, priority 2011, dated 2015)

Tests used:
[1] = Octanol/water distribution coefficient (log P/D), isocratic HPLC method; type: physicochemical; details: pH 7.4; mean (range, n); read-out: logP/D pH 7.4
Description: The distribution coefficient octanol/water P or D is a key parameter for estimating membrane penetration and permeability. It is defined as the ratio of the equilibrium concentrations of a substance in the two-phase system octanol/water.
[formula] P=partition D=distribution c(octanol)=concentration of the substance in the octanol phase c(water)=concentration of the substance in the aqueous phase
It is usually stated in form of the decadic logarithm (log P or log D).
log P describes the distribution behavior of a substance exclusively present in its neutral form. logD describes the distribution behavior of a substance at a certain pH; depending on the ionisation constant pKa of the substance, some of the substance may be present in ionic form, and some in neutral form.
The log P/D of the active compounds was determined using an isocratic HPLC method (HPLC=high performance liquid chromatography) (literature: OECD Guideline for Testing of Chemicals No. 117). The method is based on the correlation of the HPLC retention time of the test substance to that of reference substances with known distribution coefficients.
The test substance was employed as a 10 mM solution in DMSO (DMSO=dimethyl sulfoxide). 10 μl of this solution were made up to 100 μl with a methanol/water mixture in a ratio of 7+3.
The nine reference substances were dissolved individually in methanol. 100 μl each of the stock solutions were added to an HPLC vial and mixed with 300 μl of water.
A formamide solution was used to determine the hold-up time. To this end, 7 mg of formamide were dissolved in 10 ml of methanol. 100 μl of this stock solution were mixed with 500 μl of methanol and 200 μl of water.
All solutions were chromatographed using a flow rate of 1.00 ml/min.
Injection Protocol: formamide, references, test substance 1, test substance 2, . . . , formamide, references.
Evaluation of the retention times was carried out in a diode array detector (DAD) at 200-400 nm. Via the molecular mass, the identity of the test substance was checked using the downstream mass spectrometer.
The HPLC run was evaluated using the Waters software Masslynx 4.1.
The log P/D values were calculated using the software “POW Determination” (proprietary development).

[2] = test system: Myzus persicae; assay: Myzus test (MYZUPE spray treatment); type: in vivo; details: 500 g/ha, after 6 days
[3] = test system: Tetranychus urticae; assay: Tetranychus test, OP-resistant (TETRUR spray treatment); type: in vivo; details: 100 g/ha, after 6 days
Procedure: (§1) Solvents: 78.0 parts by weight of acetone
After 6 days, the effect in % is determined.
Tetranychus Test, OP-Resistant (TETRUR Spray Treatment)

[4] = test system: Spodoptera frugiperda; assay: Spodoptera frugiperda test (SPODFR spray treatment); type: in vivo; details: 500 g/ha, after 7 days
Description: as §1

[5] = test system: PC-3 prostate carcinoma xenograft; assay: In-vivo efficacy in the PC3 xenograft model in the mouse; details: 17 days, 2 administrations per day; for T/C: final tumor weight
Procedure: (§2) Administration route: per os
Administration volume: 10 ml/kg

[6] = Pharmacokinetic parameters in the rat (i.v. and intragastric); type: in vivo; details: intragastric vs. i.v.
Procedure: For this, the test substances were applied in dissolved form both for intravenous, and for intragastric application, wherein compatible solubilizers such as PEG400 and/or ethanol were used in a compatible amount.
The test substances were applied at a dose of 0.1-1 mg/kg. Administration was as a bolus injection in the male rat and as an infusion in the female dog (15 min). At various time points after the bolus injection, and before and after the 15-minute infusion, blood samples of about 100-150 μl were removed via a catheter either from the jugular vein (rat) or from the saphenous vein (dog). Lithium-heparin was added as anticoagulant to the blood samples and they were stored in a refrigerator until required for further processing. After centrifugation of the samples for 15 min at 3000 rpm, an aliquot of 100 μl was taken from the supernatant (plasma) and was precipitated by adding 400 μl of cold ACN or methanol (absolute). The precipitated samples were frozen-out at […] overnight, then centrifuged again at 3000 rpm for 15 min, before 150 μl of the clear supernatant were removed to determine the concentration. The analysis was effected by means of an Agilent 1200 HPLC system with connected LCMS/MS detection. […]

[7] = test system: Phaedon cochleariae; assay: Phaedon test (PHAECO spray treatment); details: 500 g/ha, after 7 days
[8] = Maximum tolerated dose (MTD) in the mouse; type: in vivo; details: female nude mice, 21 days
Procedure: The MTD was defined as the highest dose which could be administered without any animal dying during the treatment phase, and without any body weight loss of more than 10% compared to the initial weight.
Example 1-1 was administered to female nude mice (NMRI nu/nu):
as §2
• (Solutol HS15: polyoxyethylene ester of 12-hydroxystearic acid) Administration volume:10 ml/kg Protocol: see Table 7
The treatment phase was followed by an observation phase of 21 days.

[9] = 80 mg/kg day 1-3, 70 mg/kg from day 4 onwards, per os

Cc1ccc(-c2ccc(Cl)c(F)c2)cc1C1=C(O)C2(CCC(F)(F)CC2)NC1=O [Example 1-1, 3-(4′-Chloro-3′-fluoro-4-methylbiphenyl-3-yl)-8,8-difluoro-4-hydroxy-1-azaspiro[4.5]dec-3-en-2-one]
chromatographic logD [1]: 1.9
effect in % (aphids killed) [2]: 90%
effect in % (spider mites killed) [3]: 90%
effect in % (caterpillars killed) [4]: 100%
Deaths ([5]; 40 mg/kg per os): 0 of 9
Deaths [5, 9]: 0 of 9
T/C ([5]; 40 mg/kg per os): 0.26
T/C [5, 9]: 0.26
F [6]: 95%
effect in % (beetle larvae killed) [7]: 100%
Deaths ([8]; 12.5 mg/kg per os, 1 administration per day): 0 of 4
Deaths ([8]; 25 mg/kg per os, 1 administration per day): 0 of 4
Deaths ([8]; 50 mg/kg per os, 1 administration per day): 0 of 4
Deaths ([8]; 50 mg/kg per os, 2 administrations per day): 0 of 4
Deaths ([8]; 75 mg/kg per os, 1 administration per day): 0 of 4
Deaths ([8]; 100 mg/kg per os, 1 administration per day): 0 of 4
